Earlier results, collected in patent US20120258171A1, “COMPOSITION COMPRISING FESOTERODINE AND FIBER” (ratiopharm GmbH, priority 2009, published 2012).

Legend:
[1] = general statement on the active agent
[2] = tested on: overactive bladder; settings: both Phase III studies, versus placebo

## CC(C)C(=O)Oc1ccc(CO)cc1[C@H](CCN(C(C)C)C(C)C)c1ccccc1 [Fesoterodine, 2-[(1R)-3-(di-isopropylamine)-1-phenylpropyl]-4-(hydroxymethyl)phenyl-isobutyrate]
[1]
  stability against hydrolysis: not particularly stable against hydrolysis
[2]
  improvement of clinically relevant end points (urge incontinence events/24 h, frequency of micturition, mean micturition volume): statistically significant improvements over a placebo
